Measurements reported in patent US20220016241A1, “COMPOSITIONS AND METHODS FOR REDUCING ANTIGEN-SPECIFIC IMMUNOGENICITY” (The Research Foundation for The State University of New York, priority 2013, published 2022).

Key:
[1] = test system: anti-Humira antibody titers; test: Effect of OPLS on immunogenicity of adalimumab; format: in vivo, mice; conditions: 5 mg OPLS with Humira s.c., 4 weekly injections, 2 weeks washout
Experimental: Methods: n=8 animals/group were immunized with 4 weekly s.c. injections of 10 μg of adalimumab in 100 μl of either sterile TRIS for the free group or in 5 mg OPLS in sterile TRIS for the OPLS-Adalimumab group. After a 2 week rest period, a blood sample from the saphenous vein was collected for titer analysis. Titer values were obtained by classical sandwitch ELISA. Briefly, Nunc-Maxisorb 96-well plates were coated overnight at 4° C. with 50 μl/well of 2.5 μg/ml Humira. Plates were then washed and blocked with 1% bovine serum albumin (blocking buffer). 50 μl/well of various dilutions of the sample were added to the plate and incubated at room temperature for 2 h. Plasma samples from animals exposes to a sham treatment (buffer only) served as controls. The plates were then washed and incubated with 50 μl of goat anti-mouse anti-body-HRP conjugate at a 1:50000 dilution in blocking buffer at room temperature for 1 h. Color was developed for 20 min with 100 μl of TMB solution. 100 μl of 2 N H2SO4 was used to stop the reaction. Optical density at […] was measured using a plate reader. Non-responders were given the value of the plate specific factor for uniformity.

anti-GAA total titers = test: OPLS-GAA sequential administration study; format: in vivo, Mice; conditions: for Total titers (ELISA), week 11 after re-challenge: rechallenge 4 weekly 1 μg rhGAA; for Total titers (ELISA), week 6: 4 weekly sc
Experimental: This examples describes OPLS-GAA sequential administration study. To determine if OPLS can exert its immunomodulatory effects on the immune response to GAA when the two are administered in separate spaced injections, at the same injection site the following experiments were carried out. Mice (n=6 animals/group) were immunized with 4 weekly sc injections as follows. One group of animals received one single combined injection of 5 mg OPLS and 1 μg rhGAA(100 μl volume). Recombinant human GAA was produced by Creative Biomart. The second group received one injection of 5 mg OPLS (100 μl volume) then after a 5 minute wait they received a second injection of 1 μg rhGAA in sterile TRIS (100 μl volume) in the same injection site. The final control group received one injection of sterile TRIS (100 μl volume) then after a 5 minute wait they received a second injection of 1 μg rhGAA in sterile TRIS (100 μl volume) in the same injection site. After a two week rest period a saphenous blood sample was collected. All of the mice were then rechallenged with 4 weekly injections of 1 μg of rhGAA in 100 μl sterile TRIS (one single injection). Analysis was done by ELISA for total titers. The mean free GAA after 6 weeks was 3135±910, When co-administered, the GAA was 787±155, and when administered separately (sequentially), the GAA was 926±202 (FIG. 26). After re-challenge, terminal sampling was done at week 11. The mean free GAA after 11 weeks was 8775±2363, When co-administered, the GAA was 895±335, and when administered separately (sequentially), the GAA was 1884±761. […] Either administration method was able to induce a hypo-responsiveness towards GAA.

[2] = Safety of repeated high doses of OPLS; format: in vivo, rodent and primate models; conditions: up to 950 mg
Experimental: Given that the methods disclosed herein appear to work best with doses of OPLS that equal or exceed 5 mg, it is important to understand the safety and toxicity of high doses of OPLS.

Humira = test: Binding of OPLS to Humira
Experimental: The binding of OPLS to several therapeutic proteins was evaluated using fluorescence spectroscopy (FIG. 2). The fluorescence emission reduced as the concentration of OPLS was increased. The fluorescence intensity changes were highest for FVIII compared to GAA and OVA. […] The high affinity binding for FVIII is consistent with the existence of a putative lipid binding domain.
As shown in FIG. 6(d), anti-Humira antibody titers were lower in mice that were co-administered OPLS (5 mg dose) and Humira® ([…]) via the s.c. route than in those administered Humira® alone ([…]) (also via the s.c. route) after 4 weekly injection followed by a 2 weeks washout period. Titer values were obtained by classical sandwitch ELISA were the plates was coated with Humira before incubation with dilutions with plasma samples, anti-Humira antibodies were detected with a rat anti-mouse-HRP conjugated antibodies. […] It is highly doubtful that the weak binding seen here is “shielding” an immunologic epitope.

IL-12p70 = test: Cytokine profile of BMDCs in vitro, IL-12p70 ELISA; format: cell-based, HA mice; conditions: 1 μg/ml FVIII with 50 mM OPLS, 48 hours, n=4
Experimental: Generation of bone marrow derived dendritic cells (BMDC): Bone marrow was isolated from 6 to 8 week old naïve HA. Briefly, bone marrow was cultured in RPMI media supplemented with […] (low endotoxin), 2-mercaptoethanol, Pen/Strep and […] GMCSF. Media was changed on days 3, 6 and 8 of culture and DCs were used on day 9. BMDC are then harvested and used as needed. To verify the differentiation of bone marrow cells into DCs, CD11c surface expression was confirmed by flow cytometry using anti-CD11c-FITC antibody with appropriate isotope controls.
Effects of OPLS on cytokine profile of BMDCs in vitro: The effects of OPLS on cytokine secretion by dendritic cells were investigated. On day 9 BMDCs, generated as above, were treated with FVIII as an antigen in the presence of increasing dose of OPLS. Changes in production of pro-inflammatory cytokines TNF-α and IL12p70 as well as the regulatory cytokine TGF-β were monitored as a function of dose. BMDCs were exposed to 1 μg/ml FVIII with increasing dose of OPLS (0, 0.5, 1, 10, 25, 50 mM). 1 M stock of OPLS was prepared by adding the appropriate amount of OPLS directly to RPMI media, and pH was adjusted using sterile 3N and 1N NaOH. […] TGF-β, TNF-α and IL-12p70 concentrations were determined using standard ELISA (R&D System Inc. Minneapolis, Minn., USA or Invitrogen […], Calif.).

[3] = test system: anti-FVIII antibody titers; test: FVIII-specific tolerance with OPLS, OPDS or Dex, rechallenge with free FVIII (FIG. 11); conditions: s.c. co-administration with FVIII, then s.c. free FVIII
[4] = PK of FVIII in the presence and absence of OPLS; format: in vivo, HA mice

Compound: N[C@@H](COP(=O)(O)O)C(=O)O [OPLS, O-Phospho-L-Serine]
- Anti-Humira antibody titers vs Humira alone [1]: lower
- Total titers (ELISA), week 11 after re-challenge (anti-GAA total titers; co-administered with 5 mg OPLS): 895±335
- Total titers (ELISA), week 6 (anti-GAA total titers; co-administered: single combined injection 5 mg OPLS and 1 μg rhGAA): 787±155
- Total titers (ELISA), week 11 after re-challenge (anti-GAA total titers; sequential, 5 mg OPLS 5 min before GAA): 1884±761
- Total titers (ELISA), week 6 (anti-GAA total titers; sequential: 5 mg OPLS then 1 μg rhGAA 5 min later, same site): 926±202
- Tolerability of repeated, high doses [2]: well tolerated
- Binding between OPLS and Humira (Humira): weak binding
- IL-12p70 production by BMDC (IL-12p70): total shut down
- FVIII-specific hypo-responsiveness upon rechallenge [3]: hypo-responsiveness
- FVIII plasma exposure after intravenous co-administration ([4]; iv, FIG. 4): slight increase
- Bioavailability after subcutaneous co-administration ([4]; sc co-administration vs biotherapeutic alone): improves
- Lymphatic uptake from the subcutaneous space ([4]; sc co-administration vs biotherapeutic alone, FIGS. 5A and 5B): improves
